Tested on: KB
Experiment: Cytotoxicity against human KB cells after 48 hrs by MTT assay
Format: functional, cell-based

Structure (SMILES) | IC50 [µM]
CC1=C(O)C(=O)[C@@H]2CC(=O)[C@@]34C(=O)N[C@@H](Cc5c[nH]c6ccccc56)[C@@H]3[C@H](C)[C@@]3(C)O[C@H]3[C@@H]4/C=C/C[C@H](C)[C@@H]12 [CHAETOGLOBOSIN U] | 16
C/C1=C\[C@@H](C)C/C=C/[C@H]2[C@@H]3O[C@]3(C)[C@@H](C)[C@H]3[C@H](Cc4c[nH]c5ccccc45)NC(=O)[C@]32c2ccc([nH]2)C(=O)C1=O [PENOCHALASIN A] | 48
CC1=C(C)[C@H]2[C@H](Cc3c[nH]c4ccccc34)NC(=O)[C@]23C(=O)CC[C@H](O)C(=O)/C(C)=C/[C@@H](C)C/C=C/[C@H]3[C@@H]1O [CHAETOGLOBOSIN E] | 40
C/C1=C\[C@@H](C)C/C=C/[C@H]2[C@@H]3O[C@]3(C)[C@@H](C)[C@H]3[C@H](Cc4c[nH]c5ccccc45)NC(=O)[C@]32C(=O)CC[C@H](O)C1=O [CHAETOGLOBOSIN F] | 52
C/C1=C\[C@@H](C)C/C=C/[C@H]2[C@@H]3O[C@]3(C)[C@@H](C)[C@H]3[C@H](Cc4c[nH]c5ccccc45)NC(=O)[C@]32C(=O)CCC(=O)C1=O [CHAETOGLOBOSIN C] | 34
